Reference: US5686061A, “Particulate contrast media derived from non-ionic water soluble contrast agents for CT enhancement of hepatic tumors” (priority 1994, dated 1997)
Entries after “also recorded” stand apart in the source; their conditions may differ. Where two headings read alike, the source gives them in different places.

Experiments:
[1] = background; cited from earlier work
[2] = Hydrolytic degradation of IX-C particles (HCl, NaOH, saline); format: physicochemical; conditions: supernatants of all samples (HCl, NaOH, saline, plasma)
Procedure: (§1) Degradation of IX-C particles was investigated by incubating a suspension of the particles (25 mg) in the following solutions (each 1 ml) at 37° C.:0.1 N HCl, 0.1 N NaOH, saline, and rabbit plasma. The disappearance of the particles in the suspensions was noted by visual observations and the integrity of the particles was examined by scanning electron microscopy. To identify the degradation products, the residual solutions were subjected to analysis by HPLC. The HPLC system consisted of a RP-18 column, a Perkin-Elmer isocratic LC pump (Model 250), a PE Nelson 900 series interface, a Spectra-Physics UV/Vis detector (Model SP 8540) and a data station. The eluant (10% methanol in double distilled water) was run at 0.8 ml/min. with UV detection at 254 nm. Samples in HCl or NaOH were neutralized before injection. Plasma samples were first treated with PCA (0.4 N) and centrifuged to remove precipitate proteins. The supernatants were then injected for HPLC analysis.

[3] = Enzymatic degradation of IX-C particles in rabbit plasma; format: in vitro ADME; conditions: plasma samples
Procedure: as §1

Solubility of IX-C = format: physicochemical
Swiss Webster mice = experiment: in vivo; conditions: male and female mice
Procedure: (§2) Swiss Webster mice (Harlan Sprague Dawley Inc., Indianapolis, Ind.) weighing between 25 and 30 g were given doses ranging from 0.2 to 1 ml/mouse. Five animals were used for each dose. No anesthesia was used for injection. Following the injection, animals were monitored daily for 7 days. The percentage survival vs. dose curve was constructed to estimate LD50.

in vivo = conditions: mouse, in vivo, iv
Procedure: as §2

liver = experiment: Computed tomography of liver in normal rabbits; format: in vivo, New Zealand white rabbits; conditions: predicted from CT imaging data
Procedure: New Zealand white rabbits (male, 3.0 to 3.5 kg) were anesthetized by an intramuscular injection of a solution containing xylazine (8.6 mg/ml), ketamine (42.9 mg/ml), and acepromazine (1.4 mg/ml) at a dose of 0.4 ml/kg for a long-lasting effect. Intravenous catheters (22-gauge) were placed in a marginal ear vein for the introduction of particle suspension. Rabbits were positioned supine in a GE model 9800 Quick scanner (Milwaukee, Wis.). The particulate contrast agent of proper volume (8% I, w/v in saline) was injected through the catheterized ear vein over a period of 10 to 15 minutes.
CT imaging of radiopaque particles (80 mg I/ml) was carried out at doses of 100, 200, and 270 mg I/kg body weight respectively. Three rabbits were used for each dose level. CT imaging was done with a scan speed of 1.0 seconds, 120 kV, 280 mAs, and a 25-cm field of view. Sequential, contiguous 3-mm-thick slices through the abdomen and 5-mm-thick-slices through the pelvis were obtained before contrast injection, immediately after injection and at various times (15 and 30 minutes, 1, 2, and 6 hours, and 1, 2, and 7 days after injection). The rabbits were killed with an overdose of pentobarbital sodium (50 mg/kg) administered via the catheterized ear vein.
Densitometric analysis of the liver, kidney, aorta, and bladder were performed. […]

endothelial cells = conditions: background; cited from earlier work

## CC(=O)N(CC(O)CO)c1c(I)c(C(=O)NCCO)c(I)c(C(=O)NCC(O)CO)c1I (centres unmarked) [IOXILAN]
[1]
  overall biological tolerance: high overall biological tolerance

## CC(=O)N(CC1COC(=O)O1)c1c(I)c(C(=O)NCC2COC(=O)O2)c(I)c(C(=O)N2CCOC2=O)c1I (centres unmarked) [IX-C, cyclic carbonate of IOXILAN]
[2]
  degradation products (HPLC): IOXILAN and carbon dioxide
[3]
  degradation product confirmed by FAB mass spectroscopy: presence of IOXILAN was confirmed
Solubility of IX-C
  lipid solubility: lipid soluble
Solubility of IX-C; acetone
  solubility in acetone: soluble in acetone
Solubility of IX-C; methylene chloride
  solubility in methylene chloride: limited solubility in methylene chloride; also recorded: slightly soluble in methylene chloride
Solubility of IX-C; water
  solubility in water: insoluble in water
Swiss Webster mice
  LD50 compared with those reported for other particulate CM: slightly higher than those reported for other particulate CM
In vivo; female Swiss Webster mice, tail vein, 7 days, read-out: LD50, females, as iodine
  LD50 at 168 h: 1200 mg/kg
In vivo; female Swiss Webster mice, corresponding IX-C dose, read-out: LD50, females, as IX-C
  LD50 at 168 h: 2600 mg/kg
In vivo; male Swiss Webster mice, tail vein, 7 days, read-out: LD50, males, as iodine
  LD50 at 168 h: 1400 mg/kg
In vivo; male Swiss Webster mice, corresponding IX-C dose, read-out: LD50, males, as IX-C
  LD50 at 168 h: 3100 mg/kg
liver
  predicted diagnostic dose: 100 mg I/kg body weight

## O=C(CCCCC(=O)Nc1c(I)cc(I)c(C(=O)O)c1I)Nc1c(I)cc(I)c(C(=O)O)c1I [Iodipamide, iodipamide]
Endothelial cells
  toxicity to endothelial cells: toxic to endothelial cells
